Calls of active or inactive are those of the source. The calls are words filed in the database; no cut-off is given here. Where a SMILES comes first, the peptide text is derived from it. The star is where a group is joined. Decanoyl = CCCCCCCCCC(=O)*; CH2Cl = ClC*
Biological target: Furin (Homo sapiens) (UniProt P09958)
Test: Inhibition of furin in human HEK293FT cells assessed as HA5 maturation at 25 uM after 48 hrs by Western blotting analysis
Type: cell-based

Chain of Furin (Homo sapiens) (P09958 whole entry): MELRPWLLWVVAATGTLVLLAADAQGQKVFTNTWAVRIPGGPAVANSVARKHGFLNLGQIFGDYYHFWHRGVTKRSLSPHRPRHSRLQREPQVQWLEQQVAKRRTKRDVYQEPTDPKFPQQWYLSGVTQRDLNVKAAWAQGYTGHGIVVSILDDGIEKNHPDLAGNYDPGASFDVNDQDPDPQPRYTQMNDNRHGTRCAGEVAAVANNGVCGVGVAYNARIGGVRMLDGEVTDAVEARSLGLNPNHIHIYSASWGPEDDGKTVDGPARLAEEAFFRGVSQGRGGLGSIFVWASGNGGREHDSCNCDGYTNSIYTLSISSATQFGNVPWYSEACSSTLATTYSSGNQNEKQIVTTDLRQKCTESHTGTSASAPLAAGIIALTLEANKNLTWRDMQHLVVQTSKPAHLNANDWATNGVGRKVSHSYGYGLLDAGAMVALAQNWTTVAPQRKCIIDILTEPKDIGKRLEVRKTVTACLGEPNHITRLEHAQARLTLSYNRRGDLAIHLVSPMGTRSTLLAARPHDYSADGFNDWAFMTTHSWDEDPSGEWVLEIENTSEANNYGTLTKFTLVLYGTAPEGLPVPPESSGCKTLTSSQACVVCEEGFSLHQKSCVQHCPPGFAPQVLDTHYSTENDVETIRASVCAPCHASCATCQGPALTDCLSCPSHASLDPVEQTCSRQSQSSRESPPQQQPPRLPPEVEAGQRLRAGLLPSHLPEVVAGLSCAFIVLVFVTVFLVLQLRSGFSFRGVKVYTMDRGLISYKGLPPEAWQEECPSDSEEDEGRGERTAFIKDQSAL

For `CCCCCCCCCC(=O)N[C@@H](CCCNC(=N)N)C(=O)N[C@H](C(=O)N[C@@H](CCCCN)C(=O)N[C@@H](CCCNC(=N)N)C(=O)CCl)C(C)C` (Decanoyl-RVKR-CH2Cl), the inhibition was “Active”.

From ChEMBL document CHEMBL3124763
